Columns and labels:
[1] = biological target: Calcium/calmodulin-dependent protein kinase type 1D (Homo sapiens) (UniProt Q8IU85)
[2] = biological target: Calcium/calmodulin-dependent protein kinase type II subunit beta (Homo sapiens) (UniProt Q13554)
[3] = biological target: Cyclin-dependent kinase 6 (Homo sapiens) (UniProt Q00534)
[4] = biological target: Dual specificity protein kinase CLK1 (Homo sapiens) (UniProt P49759)
[5] = biological target: Casein kinase I isoform gamma-2 (Homo sapiens) (UniProt P78368)
[6] = biological target: Tyrosine-protein kinase JAK1 (Homo sapiens) (UniProt P23458)
[7] = biological target: T1, Mitogen-activated protein kinase kinase kinase 5 (Homo sapiens) (UniProt Q99683)
T1 sequence (whole entry): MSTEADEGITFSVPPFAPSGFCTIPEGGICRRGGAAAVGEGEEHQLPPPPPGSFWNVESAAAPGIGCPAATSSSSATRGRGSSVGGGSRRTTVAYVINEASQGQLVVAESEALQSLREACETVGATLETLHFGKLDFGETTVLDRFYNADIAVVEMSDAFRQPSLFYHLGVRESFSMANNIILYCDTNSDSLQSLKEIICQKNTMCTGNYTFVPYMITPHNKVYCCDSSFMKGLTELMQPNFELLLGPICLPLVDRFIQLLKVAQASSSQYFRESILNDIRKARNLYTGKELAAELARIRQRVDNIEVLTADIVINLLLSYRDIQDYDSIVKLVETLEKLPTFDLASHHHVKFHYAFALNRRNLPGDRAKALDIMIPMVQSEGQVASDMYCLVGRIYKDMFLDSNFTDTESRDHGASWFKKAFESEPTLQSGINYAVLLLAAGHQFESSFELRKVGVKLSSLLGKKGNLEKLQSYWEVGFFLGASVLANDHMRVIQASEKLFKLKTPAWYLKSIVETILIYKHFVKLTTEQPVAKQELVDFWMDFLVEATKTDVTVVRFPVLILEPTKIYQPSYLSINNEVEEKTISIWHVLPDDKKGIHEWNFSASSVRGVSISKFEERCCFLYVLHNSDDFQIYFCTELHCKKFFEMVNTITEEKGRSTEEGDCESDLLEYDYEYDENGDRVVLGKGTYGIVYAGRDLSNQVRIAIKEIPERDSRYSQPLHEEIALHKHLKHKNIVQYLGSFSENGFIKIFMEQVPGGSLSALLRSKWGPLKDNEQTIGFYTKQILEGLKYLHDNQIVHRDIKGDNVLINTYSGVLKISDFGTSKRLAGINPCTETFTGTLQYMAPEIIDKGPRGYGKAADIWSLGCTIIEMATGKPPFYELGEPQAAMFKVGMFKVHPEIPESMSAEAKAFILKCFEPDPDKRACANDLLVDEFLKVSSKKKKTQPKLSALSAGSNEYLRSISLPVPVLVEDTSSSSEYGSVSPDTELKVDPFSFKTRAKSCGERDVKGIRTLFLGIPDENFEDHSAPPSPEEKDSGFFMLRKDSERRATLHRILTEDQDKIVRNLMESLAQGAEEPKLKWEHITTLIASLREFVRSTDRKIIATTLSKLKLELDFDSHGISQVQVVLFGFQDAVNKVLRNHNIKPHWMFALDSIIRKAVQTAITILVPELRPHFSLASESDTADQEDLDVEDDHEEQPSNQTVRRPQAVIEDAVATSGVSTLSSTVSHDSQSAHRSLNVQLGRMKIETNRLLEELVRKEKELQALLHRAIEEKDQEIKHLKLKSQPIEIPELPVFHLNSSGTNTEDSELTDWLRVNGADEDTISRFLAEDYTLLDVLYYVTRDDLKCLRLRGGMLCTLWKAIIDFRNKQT

[8] = biological target: Mitogen-activated protein kinase 3 (Homo sapiens, UniProt P27361)
[9] = biological target: Mitogen-activated protein kinase 6 (Homo sapiens) (UniProt Q16659)
[10] = biological target: Serine/threonine-protein kinase OSR1 (Homo sapiens) (UniProt O95747)
[11] = biological target: Serine/threonine-protein kinase PAK 4 (Homo sapiens) (UniProt O96013)
[12] = biological target: Serine/threonine-protein kinase PAK 5 (Homo sapiens) (UniProt Q9P286)
[13] = biological target: Cyclin-dependent kinase 16 (Homo sapiens) (UniProt Q00536)
[14] = biological target: Serine/threonine-protein kinase pim-1 (Homo sapiens) (UniProt P11309)
[15] = biological target: Ribosomal protein S6 kinase alpha-3 (Homo sapiens) (UniProt P51812)
[16] = biological target: Serine/threonine-protein kinase 10 (Homo sapiens) (UniProt O94804)
[17] = biological target: T2, Serine/threonine-protein kinase VRK1 (Homo sapiens) (UniProt Q99986)
T2 sequence (whole entry): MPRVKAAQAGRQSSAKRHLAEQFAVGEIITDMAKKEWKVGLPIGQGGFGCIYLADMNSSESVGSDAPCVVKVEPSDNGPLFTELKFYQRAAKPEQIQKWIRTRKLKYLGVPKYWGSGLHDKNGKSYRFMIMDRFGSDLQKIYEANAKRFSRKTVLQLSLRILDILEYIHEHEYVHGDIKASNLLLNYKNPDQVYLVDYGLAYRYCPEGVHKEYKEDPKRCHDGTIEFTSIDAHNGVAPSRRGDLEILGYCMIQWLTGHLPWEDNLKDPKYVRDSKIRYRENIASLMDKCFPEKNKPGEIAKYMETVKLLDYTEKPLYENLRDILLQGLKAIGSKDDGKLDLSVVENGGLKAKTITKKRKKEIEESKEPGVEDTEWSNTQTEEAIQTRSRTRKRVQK

[18] = biological target: Serine/threonine-protein kinase VRK2 (Homo sapiens) (UniProt Q86Y07)

Mitogen-activated protein kinase 6 (Homo sapiens), sequence (Q16659 whole entry): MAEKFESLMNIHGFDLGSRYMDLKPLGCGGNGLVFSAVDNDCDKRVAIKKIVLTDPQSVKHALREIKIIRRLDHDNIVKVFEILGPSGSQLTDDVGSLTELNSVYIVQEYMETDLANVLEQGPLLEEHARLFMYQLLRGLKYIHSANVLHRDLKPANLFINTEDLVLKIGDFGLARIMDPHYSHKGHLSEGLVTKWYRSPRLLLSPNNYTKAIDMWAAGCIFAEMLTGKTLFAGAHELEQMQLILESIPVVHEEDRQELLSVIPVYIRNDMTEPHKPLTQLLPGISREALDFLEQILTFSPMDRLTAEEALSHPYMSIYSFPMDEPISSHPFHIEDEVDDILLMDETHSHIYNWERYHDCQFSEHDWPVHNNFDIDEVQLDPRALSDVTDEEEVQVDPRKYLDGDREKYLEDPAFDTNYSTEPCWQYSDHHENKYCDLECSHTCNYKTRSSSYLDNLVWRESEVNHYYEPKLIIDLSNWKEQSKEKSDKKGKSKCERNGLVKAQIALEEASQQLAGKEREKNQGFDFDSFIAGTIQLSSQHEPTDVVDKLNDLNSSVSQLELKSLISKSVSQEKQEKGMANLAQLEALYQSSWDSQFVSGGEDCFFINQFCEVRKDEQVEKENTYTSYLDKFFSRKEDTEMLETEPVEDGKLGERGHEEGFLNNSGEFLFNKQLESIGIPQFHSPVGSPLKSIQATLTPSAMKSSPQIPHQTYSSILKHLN
Ribosomal protein S6 kinase alpha-3 (Homo sapiens), sequence (P51812 whole entry): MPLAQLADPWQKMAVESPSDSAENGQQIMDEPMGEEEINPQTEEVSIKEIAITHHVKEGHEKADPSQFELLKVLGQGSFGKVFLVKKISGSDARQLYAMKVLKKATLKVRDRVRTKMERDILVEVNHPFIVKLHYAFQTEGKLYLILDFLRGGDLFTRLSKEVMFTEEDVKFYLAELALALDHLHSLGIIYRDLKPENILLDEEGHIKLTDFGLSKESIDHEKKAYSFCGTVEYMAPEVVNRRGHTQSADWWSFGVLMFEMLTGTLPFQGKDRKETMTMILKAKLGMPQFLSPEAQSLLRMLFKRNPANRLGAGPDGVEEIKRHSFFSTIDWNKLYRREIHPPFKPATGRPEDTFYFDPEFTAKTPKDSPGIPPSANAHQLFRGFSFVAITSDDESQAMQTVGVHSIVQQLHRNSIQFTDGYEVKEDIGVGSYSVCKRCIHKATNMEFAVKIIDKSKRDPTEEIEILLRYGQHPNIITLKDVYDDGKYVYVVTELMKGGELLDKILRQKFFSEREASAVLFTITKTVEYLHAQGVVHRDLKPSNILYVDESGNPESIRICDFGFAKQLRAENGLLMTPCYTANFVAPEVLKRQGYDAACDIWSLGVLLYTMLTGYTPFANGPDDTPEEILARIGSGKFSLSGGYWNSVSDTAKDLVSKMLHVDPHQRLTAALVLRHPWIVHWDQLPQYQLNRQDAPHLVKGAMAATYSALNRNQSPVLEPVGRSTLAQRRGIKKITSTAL
Cyclin-dependent kinase 16 (Homo sapiens), sequence (Q00536 whole entry): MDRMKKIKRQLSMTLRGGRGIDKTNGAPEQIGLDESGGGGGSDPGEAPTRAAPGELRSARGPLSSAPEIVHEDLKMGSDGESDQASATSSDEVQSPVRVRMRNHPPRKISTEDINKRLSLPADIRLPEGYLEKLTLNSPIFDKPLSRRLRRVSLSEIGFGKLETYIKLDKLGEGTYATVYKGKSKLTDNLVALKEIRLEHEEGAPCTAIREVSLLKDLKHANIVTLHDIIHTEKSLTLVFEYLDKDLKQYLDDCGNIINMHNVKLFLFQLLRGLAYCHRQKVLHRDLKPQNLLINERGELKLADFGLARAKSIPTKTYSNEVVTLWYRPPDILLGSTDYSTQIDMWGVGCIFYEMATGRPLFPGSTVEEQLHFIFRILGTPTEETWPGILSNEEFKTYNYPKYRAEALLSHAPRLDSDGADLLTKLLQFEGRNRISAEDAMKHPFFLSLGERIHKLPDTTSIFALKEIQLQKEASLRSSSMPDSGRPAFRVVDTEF
Serine/threonine-protein kinase 10 (Homo sapiens), sequence (O94804 whole entry, looked up): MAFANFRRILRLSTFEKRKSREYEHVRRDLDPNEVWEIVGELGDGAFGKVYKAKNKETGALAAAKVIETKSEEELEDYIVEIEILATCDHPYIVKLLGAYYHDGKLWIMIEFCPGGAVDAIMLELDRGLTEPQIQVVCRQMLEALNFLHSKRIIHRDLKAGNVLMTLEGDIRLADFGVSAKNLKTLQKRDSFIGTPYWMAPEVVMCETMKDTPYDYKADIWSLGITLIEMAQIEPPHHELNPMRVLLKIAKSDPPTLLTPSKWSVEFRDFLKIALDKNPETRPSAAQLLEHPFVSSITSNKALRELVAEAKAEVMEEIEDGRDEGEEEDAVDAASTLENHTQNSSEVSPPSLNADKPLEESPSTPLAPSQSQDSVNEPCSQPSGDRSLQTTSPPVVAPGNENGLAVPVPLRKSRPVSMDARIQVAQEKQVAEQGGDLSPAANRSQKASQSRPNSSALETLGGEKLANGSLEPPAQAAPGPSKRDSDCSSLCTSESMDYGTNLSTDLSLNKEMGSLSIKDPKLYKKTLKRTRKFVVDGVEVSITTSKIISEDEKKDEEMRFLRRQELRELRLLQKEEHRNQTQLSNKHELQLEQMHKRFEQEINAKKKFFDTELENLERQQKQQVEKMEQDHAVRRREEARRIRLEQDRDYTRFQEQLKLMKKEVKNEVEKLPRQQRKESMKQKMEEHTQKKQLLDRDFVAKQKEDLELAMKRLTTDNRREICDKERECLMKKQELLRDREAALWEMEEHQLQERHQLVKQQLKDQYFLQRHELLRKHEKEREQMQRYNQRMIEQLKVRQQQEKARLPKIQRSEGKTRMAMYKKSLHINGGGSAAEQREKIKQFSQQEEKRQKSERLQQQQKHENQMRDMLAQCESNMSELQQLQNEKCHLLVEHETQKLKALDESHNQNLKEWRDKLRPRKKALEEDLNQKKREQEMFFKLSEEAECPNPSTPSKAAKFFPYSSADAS
Calcium/calmodulin-dependent protein kinase type 1D (Homo sapiens), sequence (Q8IU85 whole entry, looked up): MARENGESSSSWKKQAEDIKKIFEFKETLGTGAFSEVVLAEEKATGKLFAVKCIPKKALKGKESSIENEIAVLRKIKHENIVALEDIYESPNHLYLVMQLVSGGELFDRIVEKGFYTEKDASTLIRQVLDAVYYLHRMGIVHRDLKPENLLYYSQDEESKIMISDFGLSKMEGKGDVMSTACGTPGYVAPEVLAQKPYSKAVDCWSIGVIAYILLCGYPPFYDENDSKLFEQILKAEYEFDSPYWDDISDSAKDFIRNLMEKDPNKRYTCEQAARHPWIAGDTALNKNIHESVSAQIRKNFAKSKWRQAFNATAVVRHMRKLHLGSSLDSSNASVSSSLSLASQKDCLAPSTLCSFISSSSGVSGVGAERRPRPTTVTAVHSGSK
Serine/threonine-protein kinase OSR1 (Homo sapiens), sequence (O95747 2-527 limits assumed): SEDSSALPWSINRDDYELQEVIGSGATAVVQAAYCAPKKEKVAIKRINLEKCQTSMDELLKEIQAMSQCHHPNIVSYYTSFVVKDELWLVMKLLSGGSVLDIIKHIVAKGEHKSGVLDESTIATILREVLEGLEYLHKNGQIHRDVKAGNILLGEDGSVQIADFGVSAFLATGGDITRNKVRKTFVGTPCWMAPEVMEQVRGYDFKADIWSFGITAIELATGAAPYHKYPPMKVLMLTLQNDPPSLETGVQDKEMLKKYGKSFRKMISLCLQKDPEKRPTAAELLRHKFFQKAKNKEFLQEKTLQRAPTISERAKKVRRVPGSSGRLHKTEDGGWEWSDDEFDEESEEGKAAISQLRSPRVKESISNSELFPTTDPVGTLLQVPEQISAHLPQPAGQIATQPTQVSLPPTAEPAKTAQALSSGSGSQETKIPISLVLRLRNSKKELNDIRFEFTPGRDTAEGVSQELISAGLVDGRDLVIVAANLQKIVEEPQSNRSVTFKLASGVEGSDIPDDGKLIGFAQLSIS
Cyclin-dependent kinase 6 (Homo sapiens), sequence (Q00534 whole entry): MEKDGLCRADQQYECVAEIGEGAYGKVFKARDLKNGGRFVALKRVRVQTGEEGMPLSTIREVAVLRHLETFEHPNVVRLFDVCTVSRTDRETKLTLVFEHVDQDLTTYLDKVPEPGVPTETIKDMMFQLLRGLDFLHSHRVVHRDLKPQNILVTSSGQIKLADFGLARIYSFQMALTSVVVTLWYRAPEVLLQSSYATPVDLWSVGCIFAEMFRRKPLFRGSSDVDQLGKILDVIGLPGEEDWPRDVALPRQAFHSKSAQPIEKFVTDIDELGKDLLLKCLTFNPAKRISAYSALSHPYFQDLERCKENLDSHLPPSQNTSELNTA
Serine/threonine-protein kinase PAK 5 (Homo sapiens), sequence (Q9P286 whole entry, looked up): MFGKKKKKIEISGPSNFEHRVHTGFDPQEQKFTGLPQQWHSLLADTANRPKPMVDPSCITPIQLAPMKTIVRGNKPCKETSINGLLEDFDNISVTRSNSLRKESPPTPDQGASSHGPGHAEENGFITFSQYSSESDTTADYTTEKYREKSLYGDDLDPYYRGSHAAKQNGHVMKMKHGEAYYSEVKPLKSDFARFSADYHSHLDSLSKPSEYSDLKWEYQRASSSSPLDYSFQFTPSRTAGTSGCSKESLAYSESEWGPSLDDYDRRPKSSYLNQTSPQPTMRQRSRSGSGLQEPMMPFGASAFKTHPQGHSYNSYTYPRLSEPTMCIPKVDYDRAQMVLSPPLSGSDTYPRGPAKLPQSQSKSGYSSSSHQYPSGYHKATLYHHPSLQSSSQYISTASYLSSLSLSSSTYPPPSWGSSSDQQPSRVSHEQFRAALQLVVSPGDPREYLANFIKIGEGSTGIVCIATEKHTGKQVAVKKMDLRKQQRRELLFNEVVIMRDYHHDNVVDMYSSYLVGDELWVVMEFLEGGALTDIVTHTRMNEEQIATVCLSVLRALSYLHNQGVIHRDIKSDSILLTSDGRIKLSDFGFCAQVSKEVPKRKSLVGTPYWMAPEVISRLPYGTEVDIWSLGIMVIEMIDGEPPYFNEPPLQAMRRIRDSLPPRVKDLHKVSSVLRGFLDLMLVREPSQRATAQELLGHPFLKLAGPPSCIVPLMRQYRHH

SMILES	ΔTm [1]	ΔTm [2]	ΔTm [3]	ΔTm [4]	ΔTm [5]	ΔTm [6]	ΔTm [7]	ΔTm [8]	ΔTm [9]	ΔTm [10]	ΔTm [11]	ΔTm [12]	ΔTm [13]	ΔTm [14]	ΔTm [15]	ΔTm [16]	ΔTm [17]	ΔTm [18]
N=C(N)NCCNS(=O)(=O)c1cccc2cnccc12	0 °C	0.4 °C	0 °C	0.7 °C	0.4 °C	-0.3 °C	0.1 °C	0.1 °C	0.4 °C	1.1 °C	-0.1 °C	0.4 °C	-0.7 °C	-0.4 °C	0.6 °C	0.7 °C	0.3 °C	0.1 °C
CCOc1ccc(/C=C2/SC(=O)N(CCN)C2=O)cc1 [HIAZOLIDINEDIONE1]	-0.2 °C	-0.5 °C	0.2 °C	0.9 °C	0.6 °C	-0.1 °C	0.4 °C	-0.1 °C	0.6 °C	-0.1 °C	0.6 °C	0.1 °C	0.2 °C	-0.4 °C	0 °C	0.8 °C	0.3 °C	0.1 °C
Nc1n[nH]c2nc3ccccc3nc12 [QUINOXALINE1]	0.2 °C	0.3 °C	0.6 °C	1.6 °C	0.4 °C	2.2 °C	2.6 °C	0.3 °C	0.4 °C	0.7 °C	-0.3 °C	0.2 °C	-0.1 °C	-0.8 °C	0.9 °C	1.6 °C	0.2 °C	0.7 °C
NC(=O)c1ccc2[nH]c(-c3ccc(Oc4ccc(Cl)cc4)cc3)nc2c1	1.1 °C	0.5 °C	0.6 °C	1.2 °C	1.6 °C	1.7 °C	1 °C	-0.2 °C	0.5 °C	0.8 °C	1.3 °C	-0.2 °C	-1.4 °C	0.4 °C	1 °C	0.3 °C	0.5 °C	0.5 °C
Cn1cnc2c(NCc3ccccc3)nc(NCCO)nc21 [OLOMOUCINE]	-0.1 °C	0.2 °C	0 °C	-0.2 °C	0.5 °C	0 °C	0.1 °C	0.2 °C	0.2 °C	0.2 °C	0.4 °C	-0.1 °C	-0.6 °C	-1 °C	-0.2 °C	0.5 °C	0.4 °C	0.2 °C
O=S(=O)(c1cccc2c(Cl)cccc12)N1CCCNCC1	0 °C	0.3 °C	0.9 °C	2 °C	0.3 °C	0 °C	0.6 °C	0.4 °C	0 °C	-0.5 °C	0.8 °C	0.1 °C	-0.4 °C	2.7 °C	-0.2 °C	0.4 °C	0.3 °C	0 °C
NS(=O)(=O)c1ccc(Nc2nc(OCC3CCCCC3)c3nc[nH]c3n2)cc1	0.8 °C	0.6 °C	4.9 °C	3.9 °C	2.5 °C	9.5 °C	2.4 °C	0.1 °C	1 °C	1 °C	3.8 °C	2.7 °C	3.2 °C	0.4 °C	1.4 °C	4.1 °C	1.1 °C	0.6 °C
Cc1nc2sccn2c(=O)c1CCN1CCC(=C(c2ccccc2)c2ccc(F)cc2)CC1	0.5 °C	0.9 °C	0 °C	6.5 °C	0.3 °C	4.8 °C	5.8 °C	0 °C	0.2 °C	1 °C	0.8 °C	1 °C	-0.5 °C	6.6 °C	2.9 °C	3.1 °C	0.3 °C	0.2 °C
CCN(CC)CCNC(=O)c1c(C)[nH]c(/C=C2\C(=O)Nc3ccc(Cl)cc32)c1C [SU-11652]	2.6 °C	2.8 °C	2 °C	6.6 °C	4 °C	9.7 °C	6.3 °C	0 °C	0.8 °C	2.9 °C	6.4 °C	4.7 °C	3.5 °C	2.9 °C	6.8 °C	8.1 °C	0.6 °C	0.7 °C
O=c1c2ccccc2[nH]c(=S)n1CCN1CCC(=C(c2ccc(F)cc2)c2ccc(F)cc2)CC1 [DIACYLGLYCEROL KINASE INHIBITOR II]	0.8 °C	-1 °C	-0.4 °C	0.3 °C	0.5 °C	0.6 °C	-0.7 °C	0.2 °C	-0.1 °C	2.4 °C	1.3 °C	-0.2 °C	-0.7 °C	0 °C	0.3 °C	3.6 °C	-0.2 °C	-0.2 °C
NCCNS(=O)(=O)c1cccc2c(Cl)cccc12	0 °C	0.4 °C	-0.1 °C	0.9 °C	0 °C	0.2 °C	0.4 °C	0.1 °C	0.3 °C	0.7 °C	0.5 °C	0.1 °C	-0.1 °C	2.9 °C	0.2 °C	0.8 °C	0 °C	0.1 °C
C[S+]([O-])c1ccc(CSc2nc(-c3ccc(F)cc3)c(-c3ccncc3)[nH]2)cc1 (stereo unspecified)	0 °C	0 °C	0.2 °C	-0.5 °C	0.9 °C	0.2 °C	0.9 °C	0.3 °C	-0.2 °C	0.1 °C	0.1 °C	0.4 °C	-0.7 °C	-2 °C	0.1 °C	0.8 °C	-0.1 °C	0.1 °C

From ChEMBL document CHEMBL1145498, “A systematic interaction map of validated kinase inhibitors with Ser/Thr kinases” (Proc Natl Acad Sci U S A, 2007)
